This experiment addresses T1, PKD2L1 (polycystic kidney disease 2-like 1 channel) (Mus musculus, UniProt A2A259).
T1 construct: mouse PKD2L1 in pCINeo/IRES-GFP, transiently expressed in HEK293T cells; no PKD1L3 co-expression mentioned; homotetramer (known biology)
T1 sequence (A2A259 1-760): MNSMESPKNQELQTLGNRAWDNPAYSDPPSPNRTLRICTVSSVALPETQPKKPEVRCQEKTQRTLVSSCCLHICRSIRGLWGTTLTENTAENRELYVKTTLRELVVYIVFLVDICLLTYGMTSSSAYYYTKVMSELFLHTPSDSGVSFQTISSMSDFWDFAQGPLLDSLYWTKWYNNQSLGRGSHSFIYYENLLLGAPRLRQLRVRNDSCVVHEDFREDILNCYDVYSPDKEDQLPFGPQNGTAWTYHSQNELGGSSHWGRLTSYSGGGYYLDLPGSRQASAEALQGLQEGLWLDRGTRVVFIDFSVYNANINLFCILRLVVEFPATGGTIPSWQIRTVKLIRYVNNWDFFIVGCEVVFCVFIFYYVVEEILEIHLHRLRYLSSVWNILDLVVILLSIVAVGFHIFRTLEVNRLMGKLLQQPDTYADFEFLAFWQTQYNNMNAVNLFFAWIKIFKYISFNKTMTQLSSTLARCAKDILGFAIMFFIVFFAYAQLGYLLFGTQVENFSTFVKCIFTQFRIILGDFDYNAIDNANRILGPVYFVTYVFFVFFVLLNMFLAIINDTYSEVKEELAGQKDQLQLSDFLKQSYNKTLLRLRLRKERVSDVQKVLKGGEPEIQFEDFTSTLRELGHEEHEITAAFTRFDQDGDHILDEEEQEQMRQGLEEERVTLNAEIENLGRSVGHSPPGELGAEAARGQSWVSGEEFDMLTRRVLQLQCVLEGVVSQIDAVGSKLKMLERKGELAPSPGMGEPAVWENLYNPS
Description: whole-cell patch clamp, channel activity (NPo) at -60 mV. It counts as cell-based. On the technique in general: The patch-clamp technique gives a direct electrical read-out from membranes.

The term EC50 denotes the concentration needed to bring the measured effect to its halfway point. Low values mean higher potency in that assay, high ones lower potency in that assay.

`C=C[C@H]1C[N@@]2CC[C@H]1C[C@H]2[C@H](O)c1ccnc2ccc(OC)cc12` [quinine]: the EC50 is 33 µM.

(Values after PMC10017821, “Polycystic kidney disease 2-like 1 channel contributes to the bitter aftertaste perception of quinine” (Scientific Reports, 2023).)
